Measured values from patent publication US20260176270A1 (Exelixis, Inc., priority 2022, published 2026).
Where two headings read alike, the source gives them in different places.

What was measured:
PKMYT1 = target: T1, PKMYT1 (Homo sapiens, UniProt Q99640); test: ADP-Glo PKMYT1 ATP-depletion assay; settings: 50 nM PKMYT1, 13.3 nM CDK1, read-out: Biochemical IC50
T1 construct: PKMYT1 (93 kD, full length, N-terminal GST tag from Signal Chem); GST (N); purchased Signal Chem
T1 sequence (Q99640 1-499): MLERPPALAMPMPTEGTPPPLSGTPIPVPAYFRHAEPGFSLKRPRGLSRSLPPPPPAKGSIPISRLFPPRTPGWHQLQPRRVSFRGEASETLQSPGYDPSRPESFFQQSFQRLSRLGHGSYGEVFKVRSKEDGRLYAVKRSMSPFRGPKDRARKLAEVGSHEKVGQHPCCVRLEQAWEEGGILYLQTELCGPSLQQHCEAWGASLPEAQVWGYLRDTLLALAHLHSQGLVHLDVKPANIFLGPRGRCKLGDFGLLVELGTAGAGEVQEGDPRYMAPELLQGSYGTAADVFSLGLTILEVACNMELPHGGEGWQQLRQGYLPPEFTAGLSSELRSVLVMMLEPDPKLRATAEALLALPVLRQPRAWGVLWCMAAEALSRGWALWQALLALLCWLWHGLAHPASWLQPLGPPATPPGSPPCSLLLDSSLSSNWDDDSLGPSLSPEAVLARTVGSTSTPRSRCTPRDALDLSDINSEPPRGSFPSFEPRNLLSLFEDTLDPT
In short: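 Full-length N-terminal GST-tagged PKMYT1 (50 nM) with GST-CDK1 (13.3 nM) as substrate and 88 µM ATP, in Hepes buffer with MgCl2, MnCl2, DTT and BSA; DMSO <1%. Incubated 120 min at RT. ADP formed was quantified by ADP-Glo luminescence and used to derive biochemical IC50.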

[1] = tested on: phosphorylation of CDK1 at Thr14 in HCC1806 cells; test: Cell lysate AlphaLISA assay measuring inhibition of phosphorylation of CDK1 Thr14; type: cell-based; settings: read-out: Cellular IC50
In short: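 HCC1806 cells seeded overnight, then treated 4 h at 37 °C, 5% CO2 with compounds in DMSO; washed and lysed, lysates frozen overnight at −80 °C. CDK1 Thr14 phosphorylation read by AlphaLISA SureFire Ultra; data normalized to DMSO (0% inhibition) and 3 μM reference compound to give IC50.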

| IC50 (PKMYT1) | IC50 ([1]; 4 hours) | IC50 ([1]; Homo sapiens, HCC1806, 4 h) | SMILES |
| --- | --- | --- | --- |
| 50 to 500 nM | 1000 to 5000 nM |  | Cc1ccc(O)c(C)c1-c1c(N)c(C(N)=O)nc2ccc(F)cc12 (atropisomer, axis not shown; (M)) [Compound 23, (M)-3-Amino-6-fluoro-4-(3-hydroxy-2,6-dimethylphenyl) quinoline-2-carboxamide] |
| ≥ 5000 nM |  | ≥ 5000 nM | Cc1c(-c2c(N)c(C(N)=O)cc3nccnc23)ccnc1O [Compound 159] |
| ≥ 5000 nM |  | ≥ 5000 nM | Cc1cc2c[nH]nc2cc1-c1c(N)c(C(N)=O)nc2cccnc12 [Compound 205] |
| 1000 to 5000 nM |  | ≥ 5000 nM | Cn1ncc2c(-c3c(N)c(C(N)=O)nc4cccnc34)cncc21 [Compound 332] |
| 500 to 1000 nM |  | 1000 to 5000 nM | Cc1ccc(O)c(C)c1-c1c(N)c(C(N)=O)nc2c(C)cccc12 [Compound 27, 3-Amino-4-(3-hydroxy-2,6-dimethylphenyl)-8-methylquinoline-2-carboxamide] |
| 500 to 1000 nM | 1000 to 5000 nM |  | Cc1c(O)cccc1-c1c(N)c(C(N)=O)cc2ccn(C)c(=O)c12 (atropisomer, axis not shown) [Compound 337] |
| 50 to 500 nM |  | 1000 to 5000 nM | Cc1ccc2[nH]ncc2c1-c1c(N)c(C(N)=O)cc2cccnc12 [Compound 143] |
| < 50 nM | 50 to 500 nM |  | Cc1cnc2cc(C(N)=O)c(N)c(-c3c(C)ccc(O)c3C)c2n1 [Compound 156] |
| 50 to 500 nM |  | 50 to 500 nM | COc1ccc2nc(C(N)=O)c(N)c(-c3c(C)ccc(O)c3C)c2c1 [Compound 48, 3-Amino-4-(3-hydroxy-2,6-dimethylphenyl)-6-methoxyquinoline-2-carboxamide] |
| 1000 to 5000 nM |  | ≥ 5000 nM | Cc1c(O)cccc1-c1cc(C(N)=O)nc2ccccc12 [Compound 13] |
| < 50 nM |  | < 50 nM | Cc1c(O)cccc1-c1c(N)c(C(N)=O)nc2cccc(C#N)c12 [Compound 129, 3-Amino-5-cyano-4-(3-hydroxy-2-methylphenyl)quinoline-2-carboxamide] |
| 50 to 500 nM | 1000 to 5000 nM |  | Cc1n[nH]c2cccc(-c3c(N)c(C(N)=O)cc4nccnc34)c12 (single isomer, unassigned) [Compound 118, (M)-7-Amino-8-(3-methyl-1H-indazol-4-yl)quinoxaline-6-carboxamide] |
| < 50 nM | 50 to 500 nM |  | Cc1cnc2c(-c3c(C)ccc(O)c3C)c(N)c(C(N)=O)cc2n1 [Compound 217] |
| ≥ 5000 nM | ≥ 5000 nM |  | Cc1c(O)cccc1-c1c(N)c(C(N)=O)nc2cc(C(F)(F)F)ccc12 (atropisomer, axis not shown) [Compound 148] |
| 1000 to 5000 nM |  | ≥ 5000 nM | NC(=O)c1nc2cccnc2c(-c2ccnc3[nH]ncc23)c1N [Compound 191] |
| ≥ 5000 nM |  | ≥ 5000 nM | Cc1cc(CO)ccc1-c1c(N)c(C(N)=O)nc2cccnc12 [Compound 221] |
| 50 to 500 nM | 1000 to 5000 nM |  | NC(=O)c1cc2nccnc2c(-c2c(Cl)ccc3[nH]ncc23)c1N [Compound 142] |
| 1000 to 5000 nM |  | ≥ 5000 nM | Cc1c(O)cccc1-c1c(N)c(C(N)=O)cc2nc(O)c(C(F)(F)F)nc12 [Compound 137] |
| 1000 to 5000 nM | ≥ 5000 nM |  | Cc1c(O)cccc1-c1c(N)c(C(N)=O)nc2cccc(F)c12 (single isomer, unassigned) [Compound 58, (M)-3-amino-5-fluoro-4-(3-hydroxy-2-methylphenyl)quinoline-2-carboxamide] |
| < 50 nM | 50 to 500 nM |  | Cc1cnc2cc(C(N)=O)c(N)c(-c3cccc(O)c3C)c2n1 (atropisomer, axis not shown) [Compound 168] |

| IC50 (PKMYT1) | IC50 ([1]; 4 hours) | IC50 ([1]; Homo sapiens, HCC1806, 4 h) | SMILES |
| --- | --- | --- | --- |
| 1000 to 5000 nM | 1000 to 5000 nM |  | Cc1c(O)cccc1-c1c(N)c(C(N)=O)nc2cc(C(F)(F)F)ccc12 (atropisomer, axis not shown) [Compound 147] |
| 50 to 500 nM |  | 1000 to 5000 nM | Cc1cnc2c(-c3cccc(O)c3C)c(N)c(C(N)=O)cc2c1 [Compound 196] |
| 50 to 500 nM | 1000 to 5000 nM |  | Cc1ccc(O)c(C)c1-c1c(N)c(C(N)=O)nc2ccc(Cl)cc12 (single isomer, unassigned) [Compound 53, (M)-3-Amino-6-chloro-4-(3-hydroxy-2,6-dimethylphenyl)quinoline-2-carboxamide] |
| ≥ 5000 nM |  | ≥ 5000 nM | NC(=O)c1nc2cccnc2c(-c2cccc3c2CCN3C=O)c1N [Compound 162] |
| 50 to 500 nM |  | 1000 to 5000 nM | Cc1c(O)cccc1-c1c(N)c(C(N)=O)nc2cccc(C(N)=O)c12 [Compound 338] |
| ≥ 5000 nM | ≥ 5000 nM |  | Cc1c(F)cncc1C1=c2ncccc2=NC(C(N)=O)C1N (centres unmarked) [Compound 225] |
| 500 to 1000 nM |  | ≥ 5000 nM | COc1ccc2nc(C(N)=O)c(N)c(-c3cncc(C(F)F)c3C)c2n1 [Compound 314] |
| 1000 to 5000 nM |  | 50 to 500 nM | Cc1ccc(O)c(C)c1-c1cc(C(N)=O)nc2ccccc12 [Compound 12, 4-(3-Hydroxy-2,6-dimethylphenyl)quinoline-2-carboxamide] |
| < 50 nM | 50 to 500 nM |  | Cc1ccc(O)c(C)c1-c1c(N)c(C(N)=O)cc2cccnc12 (single isomer, unassigned) [Compound 66, (P)-7-amino-8-(3-hydroxy-2,6-dimethyl-phenyl)quinoline-6-carboxamide] |
| ≥ 5000 nM | ≥ 5000 nM |  | Cc1ccc2[nH]ncc2c1-c1c(N)c(C(N)=O)cc2nccnc12 (single isomer, unassigned) [Compound 79, (M)-7-amino-8-(5-methyl-1H-indazol-4-yl)quinoxaline-6-carboxamide] |
| < 50 nM | 50 to 500 nM |  | Cc1cnc2c(-c3cccc(O)c3C)c(N)c(C(N)=O)cc2n1 (atropisomer, axis not shown) [Compound 209] |
| 1000 to 5000 nM |  | ≥ 5000 nM | NC(=O)c1nc2cccnc2c(-c2ccc3c[nH]nc3c2)c1N [Compound 204] |
| 50 to 500 nM | 50 to 500 nM |  | Cc1c(O)cccc1-c1c(N)c(C(N)=O)nc2cccc(C#N)c12 (atropisomer, axis not shown) [Compound 243] |
| 50 to 500 nM | < 50 nM |  | Cc1ccc(O)c(C)c1-c1c(N)c(C(N)=O)nc2c(C(F)(F)F)cccc12 (single isomer, unassigned) [Compound 30, (M)-3-Amino-4-(3-hydroxy-2,6-dimethylphenyl)-8-(trifluoromethyl) quinoline-2-carboxamide] |
| 1000 to 5000 nM |  | ≥ 5000 nM | Cc1cc2nc(N)sc2cc1-c1c(N)c(C(N)=O)cc2nccnc12 [Compound 311] |
| < 50 nM | 50 to 500 nM |  | Cc1ccc(O)c(C)c1-c1c(N)c(C(N)=O)cc2nc(C(F)(F)F)cnc12 (single isomer, unassigned) [Compound 112, (P)-7-Amino-8-(3-hydroxy-2,6-dimethylphenyl)-3-(trifluoromethyl)quinoxaline-6-carboxamide] |
| 1000 to 5000 nM |  | ≥ 5000 nM | N#Cc1cccc2nc(C(N)=O)c(N)c(-c3cncnc3)c12 [Compound 236] |
| ≥ 5000 nM |  | ≥ 5000 nM | Cc1c(-c2c(N)c(C(N)=O)cc3nccnc23)ccc2[nH]cnc12 [Compound 252] |
| 1000 to 5000 nM |  | ≥ 5000 nM | NC(=O)c1cc2nccnc2c(-c2cccn3cncc23)c1N [Compound 216] |
| 1000 to 5000 nM |  | ≥ 5000 nM | Cc1c(O)cccc1-c1c(N)c(C(N)=O)cc2ncc(=O)n(C)c12 [Compound 202] |
